{
  "source": "patent US11655254B2",
  "about": "“Substituted piperazines as BTK inhibitors” (HUTCHISON MEDIPHARMA LIMITED, priority 2020, dated 2023)",
  "key": {"[1]": {"target": "Phosphorylated BTK in Ramos cells (Homo sapiens (Human), UniProt Q06187)", "sequence (Q06187 whole entry)": "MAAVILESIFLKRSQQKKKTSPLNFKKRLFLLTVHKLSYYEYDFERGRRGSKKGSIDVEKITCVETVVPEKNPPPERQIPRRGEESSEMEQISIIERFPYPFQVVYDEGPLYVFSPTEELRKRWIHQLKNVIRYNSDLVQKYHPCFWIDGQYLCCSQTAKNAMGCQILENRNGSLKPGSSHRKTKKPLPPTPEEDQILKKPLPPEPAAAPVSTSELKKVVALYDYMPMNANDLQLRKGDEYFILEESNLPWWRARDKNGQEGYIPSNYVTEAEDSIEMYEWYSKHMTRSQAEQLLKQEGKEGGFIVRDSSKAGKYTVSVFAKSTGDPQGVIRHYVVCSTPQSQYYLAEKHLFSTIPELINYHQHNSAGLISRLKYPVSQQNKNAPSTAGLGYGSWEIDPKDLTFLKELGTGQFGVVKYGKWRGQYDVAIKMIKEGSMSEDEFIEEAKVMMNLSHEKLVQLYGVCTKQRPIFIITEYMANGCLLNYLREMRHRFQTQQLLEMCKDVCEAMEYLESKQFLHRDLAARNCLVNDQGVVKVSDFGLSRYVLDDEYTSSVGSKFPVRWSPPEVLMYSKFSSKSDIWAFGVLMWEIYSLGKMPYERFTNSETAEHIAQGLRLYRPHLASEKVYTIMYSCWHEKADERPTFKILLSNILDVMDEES", "experiment": "Determination of phosphorylated BTK in Ramos cells (BTK phospho-Y223 HTRF)", "type": "cell-based", "conditions": "Ramos cells stimulated with immunoglobulin M 10 μg/mL and hydrogen peroxide 3.3 mM, 10 minutes", "description": "Ramos cells were starved in PRMI 1640 medium with 1% FBS for 2 hours. The starved Ramos cells were diluted with Hank's balanced salt solution to 5.0×10^6 cells/ml, seeded in a 96-well plate with 20 μL/well (1.0×10^5 cells/well), and cultured in a 5% CO2, 37° C. cell incubator. […]\nThe 384 well plate incubated overnight in the constant temperature incubator was taken out to detect the luminescence signal using the Envision microwell plate reader at the […]. The reading value at 665 nm/615 nm of each well multiplied by 10^4 was used as the signal value of each well.\nThe average signal value of the wells supplemented with the mixed solution of human immunoglobulin M (final concentration was 10 μg/mL) and hydrogen peroxide (final concentration was 3.3 mM) without the test compound was regarded as the high value, and the average signal value of the wells without immunoglobulin M stimulation and without the test compound was regarded as the low value. According to the signal value in each well, the inhibition ratio (%) of each concentration of compounds was calculated, and the 205 model in XL-Fit 5.3 software (ID Business Solutions Limited) was used to obtain an IC50 value.\nThe inhibition ratio is calculated as follows: inhibition ratio (%)=100%−{(treating well for the test compound−negative control treating well)/(control treating well for anti-human immunoglobulin M−negative control treating well)}×100%, wherein, […]"}, "[2]": {"system": "CIA (collagen induced arthritis) rats", "experiment": "Rat arthritis model induced by type II collagen (CIA)", "type": "in vivo", "conditions": "compared with vehicle control group", "description": "An appropriate amount of bovine type II collagen (CII, Chondrex (Redmond, Wash., USA), Cat #20021) was weighed and dissolved in 0.1 mole of acetic acid (SPGC Sinopharm Chemical Reagent Co., Ltd (Shanghai, P.R. China), Cat #: 10000218.), which was formulated into a solution with a concentration of 6 mg/mL, stirred at 4° C. overnight, and added with an equal volume of Freund's incomplete adjuvant (Sigma-Aldrich.(St. Louis, Mo., USA), Cat #: SLBW0366.), fully emulsified to prepare an emulsion with a CII concentration of 3 mg/mL.\nFemale Lewis rats were purchased from Beijing Vital River Laboratory Animal Technology Co., Ltd. (certificate number 20200928Aazz0619000579, initial body weight of 110-130 grams), and 6 rats were randomly selected as a normal group; and all of the remaining rats were immunized. In the first immunization on day 0, the rats except those in the normal group were anesthetized with isoflurane (Hebei Yipin Pharmaceutical Co., Ltd., Lot: C002170601.), and then disinfected with 75% alcohol, and 0.2 mL of emulsion was injected intradermally at the base of the tail thereof. A second challenge was carried out on day 7, and 0.2 mL of emulsion was intradermally injected using the same method. Once the animals developed symptoms on day 10, the incidence conditions thereof were closely monitored.\nAfter grouping, the normal group was not administered, and the rats in the other groups were administered with the control vehicle, 0.25 mg/kg and 4 mg/kg of the reference GDC-0853, and each dose of compound 1 orally once a day until the end of the experiment.\nThe paw volume was measured on day 10 after immunization, and the left and right hind paw volumes (V) were measured every day after the paw volume increase was detected.\nThe arthrosis paw volumes of the left and right hind limbs of each animal were measured, and the average paw volume (APV) was calculated according to the following formula: Average paw volume APV=(Vleft+Vright)/2\nThe average arthrosis paw volume of each animal before administration was used as the baseline (or considered 100% inhibition of inflammation). […]\nThe area under the curve (AUC) of the average paw volume swelling is the area under the curve of the arthrosis score swelling calculated by the trapezoid method, and the calculation formula is: AUCAPS=1/2×(APSd1+APSd2)×(d2−d1)+1/2×(APSd2+APSd3)×(d3−d2)+ . . . +1/2×(APSdn+APSd(n-1))×(dn−dn-1). […]\nED50 is calculated by XLfit software according to the AUC inhibition ratio of the area under the curve of the average paw volume swelling. […]"}},
  "note": "pIC50: −log10 of the molar value.",
  "data": [
    {"smiles": "C[C@H]1CN(C2COC2)C[C@H](C)N1c1ccc(Nc2cc(-c3ccnc(-n4ccn5c6c(cc5c4=O)CC(C)(C)C6)c3CO)cn(C)c2=O)nc1", "note": "[Compound 1, 2-(5-((5-((2S,6S)-2,6-dimethyl-4-(oxetan-3-yl)piperazin-1-yl)pyridin-2-yl)amino)-3′-(hydroxymethyl)-1-methyl-6-oxo-1,6-dihydro-[3,4′-bipyridin]-2′-yl)-7,7-dimethyl-7,8-dihydro-2H-cyclopenta[4,5]pyrrolo[1,2-a]pyrazin-1(6H)-one]", "values": [
      {"measurement": "pIC50", "setting": "[1]", "value": 8.30},
      {"measurement": "effect on paw volume", "setting": "[2]; 0.25 mg/kg oral QD", "value": "significantly increase the continuous improvement of paw volume swelling"},
      {"measurement": "effect on paw volume", "setting": "[2]; 4 mg/kg oral QD", "value": "significantly increase the continuous improvement of paw volume swelling"}
    ]}
  ]
}
